Test results published in patent US20260069531A1, “POLYMERIC LEUPROLIDE ACETATE FORMULATIONS” (Tolmar International Limited, priority 2023, published 2026).

Assays:
[1] = LA gelation studies of drug solutions (60° C., inversion test, HPLC content); type: physicochemical; settings: e-beam irradiated, 150 rpm, up to 16 days
Description: Drug solutions were prepared as described above and filled into syringes or glass vials. Syringes were untreated, contained various amounts of silicone, or were plasma coated for lubrication. Samples were irradiated by e-beam irradiation at not less than 25 kGy and stored at accelerated conditions of 60° C. with agitation at 150 rpm for up to 16 days. Samples were inspected periodically to determine if the drug solution remained a solution or had formed a solid/gel by an inversion test. Samples that had “gelled” were transferred to 5° C. for subsequent testing.
The gelation rate for each sample was calculated as Rate=1/(simulated 5° C. age at time of gelation in days). The Arrhenius equation was used to determine the simulated age, assuming standard reaction rate doubling for every 10° C. increase in temperature. […] Data was analyzed using JMP. […] Container type and lubrication were not significant.
Samples were tested for leuprolide content by HPLC. Leuprolide content was then converted to leuprolide acetate by multiplying by 1.078 (based on molecular mass ratios). A marked difference in leuprolide acetate content between the gelled and non-gelled samples was seen, with the tipping point between solution and solid/gelled samples occurring at about 45% LA.

[2] = type: physicochemical
From the text: To produce the drug/solvent bulk solution comprising the API (LA), the desired amount of the LA was combined with the solvent NMP or DMSO or combination of solvents with or without a co-solvent or other additives, in the indicated amounts (see individual experiments below). The API and solvent were combined in a glass vial or jar. Jars were mixed using the jar mill, Turbula, or shaker at room temperature until homogeneous. LA is soluble in NMP or DMSO and can load higher concentrations (at least 40% w/w). After dissolving the API in the organic solvent, the bulk solution was manually filled into syringes and capped with a tip cap. The syringes used for filling were either 1.2 mL male polypropylene syringes, 1.2 mL male cyclic olefin copolymer syringes or 1 mL male cyclic olefin copolymer syringes. Filled syringes were then packaged in labeled foil pouches with a Syringe A (polymer-solvent solution) and a desiccant pack and the pouches were sealed. After filling the syringes with the formulations, they were terminally sterilized with an external radiation dose of 30 kGy from e-beam processing. After terminal sterilization, the syringes were stored under refrigerated conditions (e.g., 2-8° C.) or accelerated conditions (>25° C. see individual experiments).

## CCNC(=O)[C@@H]1CCCN1C(=O)[C@H](CCCNC(=N)N)NC(=O)[C@H](CC(C)C)NC(=O)[C@@H](CC(C)C)NC(=O)[C@H](Cc1ccc(O)cc1)NC(=O)[C@H](CO)NC(=O)[C@H](Cc1c[nH]c2ccccc12)NC(=O)[C@H](Cc1c[nH]cn1)NC(=O)[C@@H]1CCC(=O)N1 [Leuprolide Acetate, leuprolide acetate]
[1]
  tipping point between solution and solid/gelled samples (leuprolide acetate content): about 45 % LA
[2]
  concentration of LA that can be loaded (soluble): at least 40 % w/w
